ChEMBL document CHEMBL2029261 (Bioorg Med Chem Lett, 2012)
Active and inactive are the calls of the source. No cut-off for these calls is given here.

Tests used:
[1] = Binding affinity to amyloid beta (1 to 40) aggregates assessed as change in fluorescence intensity at 10 uM relative to control
[2] = Apparent binding affinity to amyloid beta (1 to 40) aggregates; conditions: read-out: Kd(app)
Mus musculus [3] = organism: Mus musculus; assay: Binding affinity to amyloid beta plaque in APP/PS1 transgenic mouse brain tissue by thioflavin staining-based fluorescence analysis
Mus musculus [4] = organism: Mus musculus; assay: Binding affinity to amyloid beta plaque in mouse brain tissue by thioflavin staining-based fluorescence analysis
[5] = target: Amyloid-beta precursor protein (Homo sapiens) (UniProt P05067); assay: Binding affinity to unlabeled amyloid beta (1 to 42) expressed in human SH-SY5Y cells at 10 uM after 10 mins thioflavin staining-based by fluorescence microscopic analysis
Sequence of Amyloid-beta precursor protein (Homo sapiens) (P05067 whole entry): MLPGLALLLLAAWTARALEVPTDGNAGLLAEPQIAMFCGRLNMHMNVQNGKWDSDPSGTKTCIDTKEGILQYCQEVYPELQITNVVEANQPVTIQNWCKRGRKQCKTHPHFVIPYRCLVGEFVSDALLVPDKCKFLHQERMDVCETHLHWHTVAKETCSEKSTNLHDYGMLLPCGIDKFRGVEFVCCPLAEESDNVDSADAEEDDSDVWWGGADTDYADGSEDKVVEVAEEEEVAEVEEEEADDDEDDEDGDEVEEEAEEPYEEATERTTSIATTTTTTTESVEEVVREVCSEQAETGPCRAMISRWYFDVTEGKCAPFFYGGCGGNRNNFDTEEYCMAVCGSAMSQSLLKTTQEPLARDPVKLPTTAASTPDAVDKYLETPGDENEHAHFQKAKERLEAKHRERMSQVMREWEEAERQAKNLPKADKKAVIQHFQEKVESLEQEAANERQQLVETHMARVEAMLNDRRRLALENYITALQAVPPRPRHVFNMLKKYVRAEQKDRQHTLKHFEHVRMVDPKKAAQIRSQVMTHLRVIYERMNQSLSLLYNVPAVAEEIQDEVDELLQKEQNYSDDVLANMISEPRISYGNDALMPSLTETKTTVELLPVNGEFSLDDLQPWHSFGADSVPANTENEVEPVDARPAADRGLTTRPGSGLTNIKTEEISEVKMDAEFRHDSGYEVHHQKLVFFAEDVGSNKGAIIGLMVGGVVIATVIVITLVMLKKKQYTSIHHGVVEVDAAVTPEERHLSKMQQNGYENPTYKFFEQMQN

fold change (FC) [1] | Kd [2] | Structure (SMILES) | also measured
2.12 |  | O=c1c(Cl)c(Cl)cnn1/C=C/c1cccc([N+](=O)[O-])c1 | 
3.95 |  | COc1cc(OC)c(OC)cc1/C=C/n1ncc(Cl)c(Cl)c1=O | 
15.3 | 8.52 µM | COc1cccc(/C=C/n2ncc(Cl)c(Cl)c2=O)c1OC | 
1.92 |  | O=c1c(Cl)c(Cl)cnn1/C=C/c1ccc(-c2ccccc2)cc1 | 
3.42 |  | COc1ccc(OC)c(/C=C/n2ncc(Cl)c(Cl)c2=O)c1 | 
2.07 |  | COC(=O)c1ccc(/C=C/n2ncc(Cl)c(Cl)c2=O)cc1 | 
2.24 |  | O=c1c(Cl)c(Cl)cnn1/C=C/c1ccc([N+](=O)[O-])cc1 | 
2.81 |  | Cc1ccc(/C=C/n2ncc(Cl)c(Cl)c2=O)cc1 | 
40.8 | 1.84 µM | CN(C)c1ccc(/C=C/n2ncc(Cl)c(Cl)c2=O)cc1 | Activity (Mus musculus [3]): Active; Activity (Mus musculus [4]): inactive; Activity [5]: Active
11.5 | 5.03 µM | COc1ccc(/C=C/n2ncc(Cl)c(Cl)c2=O)c(OC)c1 | 
4.72 |  | O=c1c(Cl)c(Cl)cnn1/C=C/c1ccccc1 | 
2.04 |  | O=c1c(Cl)c(Cl)cnn1/C=C/c1ccc(/C=C\c2ccccc2)cc1 | 
11.1 | 3.48 µM | COc1cccc(/C=C/n2ncc(Cl)c(Cl)c2=O)c1 | 
19.8 | 2.57 µM | COc1ccc(/C=C/n2ncc(Cl)c(Cl)c2=O)cc1 | 
3.03 |  | O=c1c(Cl)c(Cl)cnn1/C=C/c1ccc(Cl)cc1 | 
5.26 |  | O=c1c(Cl)c(Cl)cnn1/C=C/c1ccc(I)cc1 | 
 | 4.14 µM | COc1cc(/C=C/n2ncc(Cl)c(Cl)c2=O)cc(OC)c1OC | FC [1]: 26.1
 |  | Cc1ccc2c(c1)sc(-c1ccc(N(C)C)cc1)[n+]2C | Activity (Mus musculus [4]): inactive
4.53 |  | COc1cccc(OC)c1/C=C/n1ncc(Cl)c(Cl)c1=O | 
3.52 |  | COc1ccc(/C=C/n2ncc(Cl)c(Cl)c2=O)cc1OC | 
5.37 |  | COc1cc(/C=C/n2ncc(Cl)c(Cl)c2=O)cc(OC)c1 | 
2.94 |  | N#Cc1ccc(/C=C/n2ncc(Cl)c(Cl)c2=O)cc1 | 
11.7 | 17.6 µM | COc1cc(OC)c(/C=C/n2ncc(Cl)c(Cl)c2=O)c(OC)c1 | 
12.2 | 2.95 µM | Nc1ccc(/C=C/n2ncc(Cl)c(Cl)c2=O)cc1 | 
8.24 |  | COc1ccccc1/C=C/n1ncc(Cl)c(Cl)c1=O | 
5.93 |  | O=c1c(Cl)c(Cl)cnn1/C=C/c1ccc(F)cc1 | 
2.12 |  | O=c1c(Cl)c(Cl)cnn1/C=C/c1ccc(Br)cc1 | 
26.8 | 4.24 µM | COc1ccc(/C=C/n2ncc(Cl)c(Cl)c2=O)c(OC)c1OC | 
4.12 |  | O=c1c(Cl)c(Cl)cnn1/C=C/c1ccccc1[N+](=O)[O-] | 
